Assay [1] addresses rat orexin 1 receptor (Rattus norvegicus, UniProt P56718). Description: Rat orexin 1 receptor radioligand binding (competitive, [3H]-SB674042, HEK293 cell preparations).
The target of assay [2] is human orexin 1 receptor (Homo sapiens (Human), UniProt O43613). The assay can be described thus: Human orexin 1 receptor radioligand binding (competitive, [3H]-SB674042, CHO cell preparations).
Assay [3] deals with human orexin 2 receptor (Homo sapiens (Human), UniProt O43614). The assay can be described thus: Human orexin 2 receptor radioligand binding (competitive, [3H]-EMPA, HEK293 cell preparations).
human orexin 2 receptor, sequence (O43614 whole entry): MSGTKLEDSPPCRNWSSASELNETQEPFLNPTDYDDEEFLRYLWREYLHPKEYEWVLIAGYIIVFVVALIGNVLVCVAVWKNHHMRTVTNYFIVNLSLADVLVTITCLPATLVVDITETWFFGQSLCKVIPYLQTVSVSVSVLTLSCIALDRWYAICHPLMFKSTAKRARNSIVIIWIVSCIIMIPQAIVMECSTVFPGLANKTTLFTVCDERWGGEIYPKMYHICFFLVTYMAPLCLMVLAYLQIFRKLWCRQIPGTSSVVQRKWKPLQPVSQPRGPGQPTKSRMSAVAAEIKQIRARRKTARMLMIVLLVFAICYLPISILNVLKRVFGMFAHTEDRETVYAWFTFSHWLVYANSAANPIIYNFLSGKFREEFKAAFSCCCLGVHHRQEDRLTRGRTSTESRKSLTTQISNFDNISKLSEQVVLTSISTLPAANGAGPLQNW
Where [4] appears, read: rat orexin 1 receptor, [3H]-SB674042 competition binding, read-out: rOX1 Ki (nm).
Setting [5] is: human orexin 1 receptor, [3H]-SB674042 competition binding, read-out: hOX1 Ki (nm).
Setting [6] is: human orexin 2 receptor, [3H]-EMPA competition binding, read-out: hOX2 Ki (nm).

Read-outs that look alike come from different tables or passages of the source.

human orexin 1 receptor, sequence (O43613 whole entry): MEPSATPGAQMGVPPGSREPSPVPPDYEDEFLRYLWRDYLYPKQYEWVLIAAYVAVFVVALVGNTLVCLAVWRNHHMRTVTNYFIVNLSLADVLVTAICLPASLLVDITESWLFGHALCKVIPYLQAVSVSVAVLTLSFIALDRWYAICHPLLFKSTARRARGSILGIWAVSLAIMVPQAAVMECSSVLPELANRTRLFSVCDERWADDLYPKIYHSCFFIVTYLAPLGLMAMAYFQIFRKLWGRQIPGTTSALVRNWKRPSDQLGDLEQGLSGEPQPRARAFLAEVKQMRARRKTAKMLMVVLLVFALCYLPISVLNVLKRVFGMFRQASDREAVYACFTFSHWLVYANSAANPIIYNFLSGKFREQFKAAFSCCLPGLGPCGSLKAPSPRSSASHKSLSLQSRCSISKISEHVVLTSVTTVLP

For `O=C(c1cccc(F)c1-c1cccnn1)N1[C@@H]2CC[C@H]1[C@H](Nc1cnc(C(F)(F)F)cn1)C2` [Example 262, (3-fluoro-2-(pyridazin-3-yl)phenyl)((1S,2R,4R)-2-((5-(trifluoromethyl)pyrazin-2-yl)amino)-7-azabicyclo[2.2.1]heptan-7-yl)methanone], the Ki in assay [1] (setting [4]) is 106 nM; in assay [2] (setting [5]), 175 nM; in assay [3] (setting [6]), 4200 nM.
Consider `Cc1cccc(C(=O)N2[C@@H]3CC[C@H]2[C@H](Nc2cnc(C(F)(F)F)cn2)C3)c1-c1cccnn1` [Example 263, (3-methyl-2-(pyridazin-3-yl)phenyl)((1S,2R,4R)-2-((5-(trifluoromethyl)pyrazin-2-yl)amino)-7-azabicyclo[2.2.1]heptan-7-yl)methanone], for which the inhibitory constant (Ki) in assay [1] (read-out: rOX1 Ki (nm)) is 44 nM; in assay [2] (read-out: hOX1 Ki (nm)), 41 nM; in assay [3] (setting [6]), 1100 nM.
Taken in the same sequence, the figures for `O=C(c1ccc(F)cc1-c1ncccn1)N1[C@@H]2CC[C@H]1[C@H](Nc1cnc(C(F)(F)F)cn1)C2` [Example 267, (4-fluoro-2-(pyrimidin-2-yl)phenyl)((1S,2R,4R)-2-((5-(trifluoromethyl)pyrazin-2-yl)amino)-7-azabicyclo[2.2.1]heptan-7-yl)methanone] were 33 nM, 61 nM and 1700 nM.
With `O=C(c1cccc(F)c1-n1nccn1)N1[C@@H]2CC[C@H]1[C@H](Nc1ncc(C(F)(F)F)cn1)C2` [Example 269, (3-fluoro-2-(2H-1,2,3-triazol-2-yl)phenyl)((1S,2R,4R)-2-((5-(trifluoromethyl)pyrimidin-2-yl)amino)-7-azabicyclo[2.2.1]heptan-7-yl)methanone], the results for the Ki in assay [1] (read-out: rOX1 Ki (nm)), in assay [2] (setting [5]) and in assay [3] (setting [6]) were 48 nM, 111 nM and 1700 nM, respectively.
Regarding `O=C(c1cccc(F)c1-c1ncccn1)N1[C@@H]2CC[C@H]1[C@H](Nc1ncc(C(F)(F)F)cn1)C2` [Example 271, (3-fluoro-2-(pyrimidin-2-yl)phenyl)((1S,2R,4R)-2-((5-(trifluoromethyl)pyrimidin-2-yl)amino)-7-azabicyclo[2.2.1]heptan-7-yl)methanone], the Ki in assay [1] (read-out: rOX1 Ki (nm)) is 41 nM; in assay [2] (read-out: hOX1 Ki (nm)), 42 nM; in assay [3] (setting [6]) it was 2300 nM.
In the same order, the values of `Cc1cccc(C(=O)N2[C@@H]3CC[C@H]2[C@H](Nc2ncc(C(F)(F)F)cn2)C3)c1-n1nccn1` [Example 272, (3-methyl-2-(2H-1,2,3-triazol-2-yl)phenyl)((1S,2R,4R)-2-((5-(trifluoromethyl)pyrimidin-2-yl)amino)-7-azabicyclo[2.2.1]heptan-7-yl)methanone] are 21 nM, 26 nM and 742 nM.
For `Cc1cccc(C(=O)N2[C@@H]3CC[C@H]2[C@H](Nc2ncc(C(F)(F)F)cn2)C3)c1I` [Example 276, (2-iodo-3-methylphenyl)((1S,2R,4R)-2-((5-(trifluoromethyl)pyrimidin-2-yl)amino)-7-azabicyclo[2.2.1]heptan-7-yl)methanone], the Ki in assay [1] (setting [4]) came to 133 nM; in assay [2] (read-out: hOX1 Ki (nm)), 97 nM; in assay [3] (setting [6]), 2500 nM.
Regarding `Cc1cnc(N[C@@H]2C[C@H]3CC[C@@H]2N3C(=O)c2cccc(F)c2-c2ncccn2)cn1` [Example 278, (3-fluoro-2-(pyrimidin-2-yl)phenyl)((1S,2R,4R)-2-((5-methylpyrazin-2-yl)amino)-7-azabicyclo[2.2.1]heptan-7-yl)methanone], the Ki in assay [1] (read-out: rOX1 Ki (nm)) came to 87 nM; in assay [2] (read-out: hOX1 Ki (nm)), 77 nM; in assay [3] (setting [6]), 934 nM.
Take `O=C(c1cccc(F)c1-c1ncccn1)N1[C@@H]2CC[C@H]1[C@H](Nc1ccc(C(F)(F)F)cn1)C2` [Example 279, (3-fluoro-2-(pyrimidin-2-yl)phenyl)((1S,2R,4R)-2-((5-(trifluoromethyl)pyridin-2-yl)amino)-7-azabicyclo[2.2.1]heptan-7-yl)methanone]: the inhibition constant (Ki) in assay [1] (rOX1 Ki (nm)) came out at 15 nM; in assay [2] (hOX1 Ki (nm)), 8 nM; in assay [3] (hOX2 Ki (nm)) it was 1100 nM.
In the case of `O=C(c1ccc(F)cc1-c1ncccn1)N1[C@@H]2CC[C@H]1[C@H](Nc1ccc(C(F)(F)F)cn1)C2` [Example 280, (4-fluoro-2-(pyrimidin-2-yl)phenyl)((1S,2R,4R)-2-((5-(trifluoromethyl)pyridin-2-yl)amino)-7-azabicyclo[2.2.1]heptan-7-yl)methanone], the inhibition constant (Ki) in assay [1] (read-out: rOX1 Ki (nm)) was 39 nM; in assay [2] (read-out: hOX1 Ki (nm)), 37 nM; in assay [3] (setting [6]) it was 1300 nM.
With `O=C(c1cccc(F)c1-c1ncco1)N1[C@@H]2CC[C@H]1[C@H](Nc1ncc(C(F)(F)F)cn1)C2` [Example 284, (3-fluoro-2-(oxazol-2-yl)phenyl)((1S,2R,4R)-2-((5-(trifluoromethyl)pyrimidin-2-yl)amino)-7-azabicyclo[2.2.1]heptan-7-yl)methanone], the Ki is 29 nM in assay [1] (read-out: rOX1 Ki (nm)), 27 nM in assay [2] (read-out: hOX1 Ki (nm)) and 1700 nM in assay [3] (setting [6]).
In the case of `O=C(c1ncccc1-n1nccn1)N1[C@@H]2CC[C@H]1[C@H](Nc1cnc(C(F)(F)F)cn1)C2` [Example 288, (3-(2H-1,2,3-triazol-2-yl)pyridin-2-yl)((1S,2R,4R)-2-((5-(trifluoromethyl)pyrazin-2-yl)amino)-7-azabicyclo[2.2.1]heptan-7-yl)methanone], the Ki came out at 94 nM in assay [1] (read-out: rOX1 Ki (nm)), 128 nM in assay [2] (setting [5]) and 1900 nM in assay [3] (setting [6]).

As a reminder, the Ki is a dissociation constant, usually derived from enzyme kinetics or from competition with a known ligand.

The values are drawn from patent US9062078B2, “Substituted 7-azabicyles and their use as orexin receptor modulators” (priority 2013, dated 2015).
